Columns and labels:
[1] = target: Voltage-gated inwardly rectifying potassium channel KCNH2 (Homo sapiens, UniProt Q12809); assay type: functional; conditions: read-out: AC50
Thromboxane A2 receptor [2] = target: T1, Thromboxane A2 receptor (Homo sapiens, UniProt P21731); assay type: functional, cell-based
T1 sequence (P21731 whole entry): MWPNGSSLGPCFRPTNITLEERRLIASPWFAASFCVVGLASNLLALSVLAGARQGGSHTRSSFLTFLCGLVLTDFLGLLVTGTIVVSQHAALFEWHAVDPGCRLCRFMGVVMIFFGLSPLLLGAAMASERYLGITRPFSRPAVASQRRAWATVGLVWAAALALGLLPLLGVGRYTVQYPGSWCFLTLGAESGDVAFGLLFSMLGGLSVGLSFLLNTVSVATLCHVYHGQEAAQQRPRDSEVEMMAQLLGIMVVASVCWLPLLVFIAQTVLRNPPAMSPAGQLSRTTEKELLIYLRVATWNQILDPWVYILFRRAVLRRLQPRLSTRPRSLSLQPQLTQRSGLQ

[3] = target: T2, Prostaglandin G/H synthase 1 (Homo sapiens, UniProt P23219); assay type: functional
[4] = target: T2, Prostaglandin G/H synthase 1; assay type: functional; remark: listed apart in the source
Adenosine receptor A3 = target: T3, Adenosine receptor A3 (Homo sapiens, UniProt P0DMS8)
T3 sequence (P0DMS8 whole entry): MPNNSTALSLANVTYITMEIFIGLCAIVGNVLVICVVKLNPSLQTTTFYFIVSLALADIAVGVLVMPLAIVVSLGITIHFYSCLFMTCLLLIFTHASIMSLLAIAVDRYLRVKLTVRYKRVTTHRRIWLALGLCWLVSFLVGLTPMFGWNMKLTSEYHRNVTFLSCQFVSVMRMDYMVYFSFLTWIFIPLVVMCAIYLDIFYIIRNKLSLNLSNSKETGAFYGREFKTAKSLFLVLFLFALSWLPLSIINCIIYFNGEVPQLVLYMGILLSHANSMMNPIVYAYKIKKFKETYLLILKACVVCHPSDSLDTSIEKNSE

[5] = target: 5-hydroxytryptamine receptor 2B (Homo sapiens, UniProt P41595); assay type: functional, cell-based
Estrogen receptor = target: T4, Estrogen receptor (Homo sapiens, UniProt P03372)
T4 sequence (P03372 whole entry): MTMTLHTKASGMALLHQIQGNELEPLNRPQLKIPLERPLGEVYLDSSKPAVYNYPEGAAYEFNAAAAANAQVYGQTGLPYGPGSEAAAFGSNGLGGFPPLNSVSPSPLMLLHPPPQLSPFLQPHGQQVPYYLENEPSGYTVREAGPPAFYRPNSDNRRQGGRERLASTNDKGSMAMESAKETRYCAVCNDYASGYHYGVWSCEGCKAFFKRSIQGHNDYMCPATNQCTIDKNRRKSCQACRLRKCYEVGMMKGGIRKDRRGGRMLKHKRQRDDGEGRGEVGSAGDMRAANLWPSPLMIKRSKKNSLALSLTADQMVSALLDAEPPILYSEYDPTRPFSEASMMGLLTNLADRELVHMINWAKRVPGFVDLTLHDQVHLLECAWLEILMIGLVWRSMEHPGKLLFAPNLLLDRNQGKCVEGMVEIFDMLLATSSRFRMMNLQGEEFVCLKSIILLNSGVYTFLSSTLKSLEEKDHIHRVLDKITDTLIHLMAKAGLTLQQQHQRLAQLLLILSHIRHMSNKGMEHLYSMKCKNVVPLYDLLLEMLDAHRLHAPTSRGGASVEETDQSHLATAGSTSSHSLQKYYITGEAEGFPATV

Prothrombin = Prothrombin (Homo sapiens, UniProt P00734); assay type: functional
[6] = target: T5, Amine oxidase [flavin-containing] A (Homo sapiens, UniProt P21397); assay type: functional
T5 sequence (P21397 whole entry): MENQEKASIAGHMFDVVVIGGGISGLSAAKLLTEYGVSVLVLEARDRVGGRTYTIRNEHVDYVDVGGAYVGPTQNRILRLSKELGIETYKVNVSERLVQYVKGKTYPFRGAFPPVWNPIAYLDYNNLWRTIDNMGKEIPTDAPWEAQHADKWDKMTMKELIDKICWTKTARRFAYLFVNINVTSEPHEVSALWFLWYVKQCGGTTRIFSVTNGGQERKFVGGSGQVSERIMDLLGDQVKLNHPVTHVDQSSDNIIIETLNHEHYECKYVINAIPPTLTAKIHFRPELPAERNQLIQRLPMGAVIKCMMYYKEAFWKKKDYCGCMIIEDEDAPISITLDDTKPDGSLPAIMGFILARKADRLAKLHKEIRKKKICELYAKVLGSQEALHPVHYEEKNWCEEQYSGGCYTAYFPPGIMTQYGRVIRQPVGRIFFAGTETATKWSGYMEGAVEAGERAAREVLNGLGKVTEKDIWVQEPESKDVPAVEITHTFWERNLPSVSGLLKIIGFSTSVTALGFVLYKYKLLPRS

D(3) dopamine receptor = D(3) dopamine receptor (Homo sapiens, UniProt P35462)
[7] = target: Sodium-dependent dopamine transporter (Homo sapiens, UniProt Q01959)
Thromboxane A2 receptor [8] = target: T1, Thromboxane A2 receptor; assay type: functional, cell-based; remark: listed apart in the source
Mu-type opioid receptor = Mu-type opioid receptor (Homo sapiens, UniProt P35372)
Acetylcholinesterase = Acetylcholinesterase (Homo sapiens, UniProt P22303); assay type: functional
[9] = target: cGMP-inhibited 3',5'-cyclic phosphodiesterase 3A (Homo sapiens, UniProt Q14432); assay type: functional
[10] = target: T6, Alpha-1A adrenergic receptor (Homo sapiens, UniProt P35348); assay type: functional, cell-based
T6 sequence (P35348 whole entry): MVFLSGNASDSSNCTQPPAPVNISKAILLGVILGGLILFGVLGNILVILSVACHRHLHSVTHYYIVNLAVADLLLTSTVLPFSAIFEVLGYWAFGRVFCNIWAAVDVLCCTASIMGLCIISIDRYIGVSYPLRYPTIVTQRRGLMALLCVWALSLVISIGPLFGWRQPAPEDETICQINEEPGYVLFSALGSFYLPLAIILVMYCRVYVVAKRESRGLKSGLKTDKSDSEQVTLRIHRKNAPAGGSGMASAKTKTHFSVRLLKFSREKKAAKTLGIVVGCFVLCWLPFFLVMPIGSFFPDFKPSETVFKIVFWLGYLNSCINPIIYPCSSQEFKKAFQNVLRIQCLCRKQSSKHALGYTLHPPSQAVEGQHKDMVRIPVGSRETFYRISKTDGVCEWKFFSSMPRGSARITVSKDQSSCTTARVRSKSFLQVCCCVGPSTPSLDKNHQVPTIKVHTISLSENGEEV
Further: assay procedure not described here.

Sequence of cGMP-inhibited 3',5'-cyclic phosphodiesterase 3A (Q14432 whole entry): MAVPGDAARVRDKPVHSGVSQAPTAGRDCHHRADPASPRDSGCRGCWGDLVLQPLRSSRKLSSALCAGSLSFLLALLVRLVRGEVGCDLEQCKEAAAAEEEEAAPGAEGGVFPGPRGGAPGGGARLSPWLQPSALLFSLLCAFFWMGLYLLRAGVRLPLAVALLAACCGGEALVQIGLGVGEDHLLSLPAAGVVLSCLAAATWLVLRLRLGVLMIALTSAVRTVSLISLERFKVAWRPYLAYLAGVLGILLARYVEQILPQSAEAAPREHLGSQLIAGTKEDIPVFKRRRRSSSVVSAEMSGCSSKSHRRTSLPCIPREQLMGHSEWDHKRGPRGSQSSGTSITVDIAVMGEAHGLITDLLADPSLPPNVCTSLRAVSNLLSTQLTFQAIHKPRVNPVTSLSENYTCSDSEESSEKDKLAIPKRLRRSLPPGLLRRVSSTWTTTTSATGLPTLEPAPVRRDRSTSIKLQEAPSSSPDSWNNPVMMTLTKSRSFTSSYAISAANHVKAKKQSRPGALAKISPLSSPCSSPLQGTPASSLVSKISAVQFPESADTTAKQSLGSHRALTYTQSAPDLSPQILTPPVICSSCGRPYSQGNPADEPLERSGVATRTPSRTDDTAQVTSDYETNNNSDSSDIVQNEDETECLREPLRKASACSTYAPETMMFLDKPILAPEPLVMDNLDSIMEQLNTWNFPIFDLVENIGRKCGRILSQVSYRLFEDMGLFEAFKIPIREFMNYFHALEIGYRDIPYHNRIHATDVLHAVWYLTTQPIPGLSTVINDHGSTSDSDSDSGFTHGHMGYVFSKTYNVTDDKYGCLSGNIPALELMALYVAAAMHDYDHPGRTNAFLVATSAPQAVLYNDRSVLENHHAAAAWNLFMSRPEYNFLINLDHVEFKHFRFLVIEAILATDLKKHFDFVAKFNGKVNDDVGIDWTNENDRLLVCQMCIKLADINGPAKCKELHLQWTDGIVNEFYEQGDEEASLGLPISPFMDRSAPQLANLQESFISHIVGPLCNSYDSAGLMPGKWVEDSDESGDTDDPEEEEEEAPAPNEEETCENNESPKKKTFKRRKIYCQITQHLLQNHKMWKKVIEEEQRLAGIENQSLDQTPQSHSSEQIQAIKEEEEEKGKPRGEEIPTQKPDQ
T2 sequence (P23219 whole entry): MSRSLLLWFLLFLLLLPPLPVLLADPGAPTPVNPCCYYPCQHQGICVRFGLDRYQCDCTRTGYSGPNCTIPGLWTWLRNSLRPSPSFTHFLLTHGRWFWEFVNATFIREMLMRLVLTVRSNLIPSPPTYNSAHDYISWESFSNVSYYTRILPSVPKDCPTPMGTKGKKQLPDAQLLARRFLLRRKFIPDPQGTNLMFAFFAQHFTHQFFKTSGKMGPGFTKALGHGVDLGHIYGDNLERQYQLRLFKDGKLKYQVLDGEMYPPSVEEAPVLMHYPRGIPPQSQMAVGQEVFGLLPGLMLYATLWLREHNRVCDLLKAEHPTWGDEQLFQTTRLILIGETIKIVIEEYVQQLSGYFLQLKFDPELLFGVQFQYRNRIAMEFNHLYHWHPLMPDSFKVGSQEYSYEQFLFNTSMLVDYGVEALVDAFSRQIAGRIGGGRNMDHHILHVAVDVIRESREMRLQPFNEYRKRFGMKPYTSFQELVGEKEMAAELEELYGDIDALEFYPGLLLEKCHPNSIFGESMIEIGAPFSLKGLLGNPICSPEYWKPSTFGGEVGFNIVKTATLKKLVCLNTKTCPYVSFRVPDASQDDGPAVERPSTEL
Sequence of D(3) dopamine receptor (P35462 whole entry): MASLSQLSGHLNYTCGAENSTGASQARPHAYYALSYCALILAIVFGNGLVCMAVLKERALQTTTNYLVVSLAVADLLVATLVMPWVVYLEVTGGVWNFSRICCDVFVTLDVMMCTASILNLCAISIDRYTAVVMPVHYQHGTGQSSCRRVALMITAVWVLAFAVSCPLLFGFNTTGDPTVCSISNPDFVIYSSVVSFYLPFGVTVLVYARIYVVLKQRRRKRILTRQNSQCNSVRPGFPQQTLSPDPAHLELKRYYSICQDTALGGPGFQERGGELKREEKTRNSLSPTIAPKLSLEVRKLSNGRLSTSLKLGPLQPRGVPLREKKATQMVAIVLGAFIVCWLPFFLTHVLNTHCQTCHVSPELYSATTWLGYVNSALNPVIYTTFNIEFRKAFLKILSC
Sequence of Voltage-gated inwardly rectifying potassium channel KCNH2 (Q12809 whole entry): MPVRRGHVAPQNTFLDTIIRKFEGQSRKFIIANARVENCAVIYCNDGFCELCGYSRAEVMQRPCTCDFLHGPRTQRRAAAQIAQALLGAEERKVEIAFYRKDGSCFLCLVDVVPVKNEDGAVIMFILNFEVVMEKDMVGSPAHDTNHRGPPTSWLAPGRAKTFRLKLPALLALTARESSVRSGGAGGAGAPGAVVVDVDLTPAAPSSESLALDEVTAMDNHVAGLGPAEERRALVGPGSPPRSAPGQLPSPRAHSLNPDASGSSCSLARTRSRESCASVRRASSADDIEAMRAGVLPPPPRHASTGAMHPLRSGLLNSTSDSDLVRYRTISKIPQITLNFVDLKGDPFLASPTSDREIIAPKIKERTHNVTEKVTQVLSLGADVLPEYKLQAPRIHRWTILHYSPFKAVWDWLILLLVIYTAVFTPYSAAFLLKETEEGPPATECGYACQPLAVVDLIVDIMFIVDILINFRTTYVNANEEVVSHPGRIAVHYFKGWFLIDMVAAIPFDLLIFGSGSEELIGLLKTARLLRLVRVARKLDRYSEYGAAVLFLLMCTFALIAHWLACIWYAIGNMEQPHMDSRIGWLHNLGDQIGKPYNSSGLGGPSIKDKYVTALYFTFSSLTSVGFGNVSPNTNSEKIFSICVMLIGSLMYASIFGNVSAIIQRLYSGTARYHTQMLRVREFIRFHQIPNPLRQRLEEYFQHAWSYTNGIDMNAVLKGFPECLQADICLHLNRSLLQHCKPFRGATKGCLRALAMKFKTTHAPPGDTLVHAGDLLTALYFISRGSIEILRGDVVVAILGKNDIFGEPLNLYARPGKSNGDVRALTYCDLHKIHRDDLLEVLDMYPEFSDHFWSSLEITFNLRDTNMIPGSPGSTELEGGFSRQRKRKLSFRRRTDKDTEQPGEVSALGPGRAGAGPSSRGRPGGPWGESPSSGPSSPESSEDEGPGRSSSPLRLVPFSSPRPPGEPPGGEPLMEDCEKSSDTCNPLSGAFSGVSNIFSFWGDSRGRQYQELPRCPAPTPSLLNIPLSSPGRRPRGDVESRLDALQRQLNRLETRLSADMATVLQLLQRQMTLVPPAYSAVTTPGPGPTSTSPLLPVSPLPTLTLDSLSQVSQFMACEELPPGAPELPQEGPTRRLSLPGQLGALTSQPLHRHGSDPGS
Sequence of Acetylcholinesterase (P22303 whole entry): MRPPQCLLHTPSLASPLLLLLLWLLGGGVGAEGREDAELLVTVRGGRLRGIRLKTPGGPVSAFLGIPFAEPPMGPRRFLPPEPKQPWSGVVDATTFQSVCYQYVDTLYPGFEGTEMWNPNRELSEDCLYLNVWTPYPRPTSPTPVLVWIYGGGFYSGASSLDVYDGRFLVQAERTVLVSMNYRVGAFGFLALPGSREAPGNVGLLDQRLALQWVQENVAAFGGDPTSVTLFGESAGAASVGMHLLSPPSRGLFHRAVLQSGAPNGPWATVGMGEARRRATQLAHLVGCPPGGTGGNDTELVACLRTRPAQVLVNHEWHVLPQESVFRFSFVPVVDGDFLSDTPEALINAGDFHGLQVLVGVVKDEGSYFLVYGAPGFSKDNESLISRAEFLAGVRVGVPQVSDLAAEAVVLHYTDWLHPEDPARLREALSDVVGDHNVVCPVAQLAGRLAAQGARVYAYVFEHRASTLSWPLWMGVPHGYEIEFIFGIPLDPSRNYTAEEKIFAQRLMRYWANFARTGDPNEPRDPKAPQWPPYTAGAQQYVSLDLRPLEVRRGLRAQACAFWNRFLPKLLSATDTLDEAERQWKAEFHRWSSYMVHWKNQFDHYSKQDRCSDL
Sequence of Mu-type opioid receptor (P35372 whole entry): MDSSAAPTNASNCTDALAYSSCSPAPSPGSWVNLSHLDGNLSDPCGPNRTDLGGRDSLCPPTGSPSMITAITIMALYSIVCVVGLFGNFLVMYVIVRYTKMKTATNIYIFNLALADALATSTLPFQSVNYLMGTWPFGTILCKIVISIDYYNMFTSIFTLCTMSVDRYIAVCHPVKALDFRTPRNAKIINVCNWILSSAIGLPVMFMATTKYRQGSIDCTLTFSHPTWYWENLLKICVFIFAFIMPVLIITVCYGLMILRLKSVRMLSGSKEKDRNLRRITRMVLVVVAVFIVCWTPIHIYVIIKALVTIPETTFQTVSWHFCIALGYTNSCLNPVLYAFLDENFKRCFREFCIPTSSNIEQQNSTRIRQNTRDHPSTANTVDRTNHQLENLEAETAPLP
Sequence of 5-hydroxytryptamine receptor 2B (P41595 whole entry): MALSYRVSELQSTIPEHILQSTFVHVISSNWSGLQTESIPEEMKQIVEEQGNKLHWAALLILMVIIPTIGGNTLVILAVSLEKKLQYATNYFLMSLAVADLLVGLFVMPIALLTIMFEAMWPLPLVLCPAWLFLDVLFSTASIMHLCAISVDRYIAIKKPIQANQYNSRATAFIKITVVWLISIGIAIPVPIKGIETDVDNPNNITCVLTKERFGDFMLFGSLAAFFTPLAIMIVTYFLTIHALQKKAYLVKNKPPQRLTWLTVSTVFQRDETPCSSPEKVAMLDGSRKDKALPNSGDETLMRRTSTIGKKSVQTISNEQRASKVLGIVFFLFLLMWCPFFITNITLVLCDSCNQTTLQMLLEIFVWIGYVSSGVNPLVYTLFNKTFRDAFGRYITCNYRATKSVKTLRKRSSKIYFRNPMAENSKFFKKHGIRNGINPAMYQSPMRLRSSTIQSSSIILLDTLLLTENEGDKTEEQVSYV

Row | SMILES | AC50 [1] | AC50 (Thromboxane A2 receptor [2]) | AC50 [3] | AC50 [4] | AC50 (Adenosine receptor A3) | AC50 [5] | AC50 (Estrogen receptor) | AC50 (Prothrombin) | AC50 [6] | AC50 (D(3) dopamine receptor) | AC50 [7] | AC50 (Thromboxane A2 receptor [8]) | AC50 (Mu-type opioid receptor) | AC50 (Acetylcholinesterase) | AC50 [9] | AC50 [10]
1 | COc1ccc2c(c1)OC(C)(C)C(c1ccccc1)C2c1ccc(OCCN2CCCC2)cc1 (centres undefined) [ORMELOXIFENE] | 2.7 µM | > 30 µM | 3.31 µM | 4.3 µM | 3.66 µM | > 30 µM | 1.29 µM | > 30 µM | > 30 µM | 0.205 µM | 3 µM | 12.2 µM | 11.2 µM | > 30 µM | > 30 µM | –
2 | CC[C@@H]1/C=C(\C)C[C@H](C)C[C@H](OC)[C@H]2O[C@@](O)(C(=O)C(=O)N3CCCC[C@H]3C(=O)O[C@H](/C(C)=C/[C@@H]3CC[C@H](Cl)[C@H](OC)C3)[C@H](C)[C@@H](O)CC1=O)[C@H](C)C[C@@H]2OC [PIMECROLIMUS] | > 30 µM | > 30 µM | > 30 µM | > 30 µM | 5.19 µM | > 30 µM | – | > 30 µM | > 30 µM | > 30 µM | > 30 µM | > 30 µM | > 30 µM | > 30 µM | > 3 µM | > 30 µM
3 | CC(C(=O)O)c1ccc2c(c1)Cc1cccnc1O2 (centres undefined) [PRANOPROFEN] | > 30 µM | > 30 µM | 0.478 µM | 0.702 µM | > 30 µM | > 30 µM | – | > 30 µM | > 30 µM | > 30 µM | > 30 µM | > 30 µM | > 30 µM | > 30 µM | > 30 µM | > 30 µM
4 | CCO[C@@H](Cc1ccc(OCCn2c(C)ccc2-c2ccc(SC)cc2)cc1)C(=O)O [SAROGLITAZAR] | > 30 µM | 16.4 µM | 9.49 µM | > 30 µM | 14.9 µM | > 30 µM | > 30 µM | > 30 µM | > 30 µM | 22.2 µM | > 30 µM | – | > 30 µM | > 30 µM | > 30 µM | –
5 | O=C1CCC(N2C(=O)c3ccccc3C2=O)C(=O)N1 (centres undefined) [THALIDOMIDE] | > 30 µM | > 30 µM | > 30 µM | > 30 µM | > 30 µM | > 30 µM | – | > 30 µM | > 30 µM | > 30 µM | > 30 µM | > 30 µM | 0.202 µM | > 30 µM | > 30 µM | > 30 µM
6 | C[C@@H]1O[C@@H](OC[C@H]2O[C@@H](Oc3c(-c4ccc(OCCO)c(OCCO)c4)oc4cc(OCCO)cc(O)c4c3=O)[C@H](O)[C@@H](O)[C@@H]2O)[C@H](O)[C@H](O)[C@H]1O [TROXERUTIN] | > 30 µM | > 30 µM | > 30 µM | 22.4 µM | 7.52 µM | > 30 µM | – | > 30 µM | > 30 µM | > 30 µM | > 30 µM | > 30 µM | > 30 µM | > 30 µM | > 30 µM | > 30 µM
